Data published in patent US10800792B2, “Inhibitors of Bruton's tyrosine kinase and method of their use” (JANSSEN PHARMACEUTICA NV, priority 2015, dated 2020).

Molecular target: unphosphorylated-BTK kinase domain (UP-BTK), GST-tagged human BTK (389-659aa) (Homo sapiens (Human), UniProt Q06187)
Experiment: BTK kinase Lanthascreen binding assay
Conditions: Lanthascreen tracer competition, 60 minutes incubation; pIC50 = negative log of the IC50 in molar
Procedure, shortened: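 Measures how well compounds compete with a fluorescence-labelled tracer for binding to BTK in its unphosphorylated state. IC50 values were fitted and expressed as pIC50 (negative logarithm of the molar IC50).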

Chain of unphosphorylated-BTK kinase domain (UP-BTK), GST-tagged human BTK (389-659aa) (Q06187 389-659): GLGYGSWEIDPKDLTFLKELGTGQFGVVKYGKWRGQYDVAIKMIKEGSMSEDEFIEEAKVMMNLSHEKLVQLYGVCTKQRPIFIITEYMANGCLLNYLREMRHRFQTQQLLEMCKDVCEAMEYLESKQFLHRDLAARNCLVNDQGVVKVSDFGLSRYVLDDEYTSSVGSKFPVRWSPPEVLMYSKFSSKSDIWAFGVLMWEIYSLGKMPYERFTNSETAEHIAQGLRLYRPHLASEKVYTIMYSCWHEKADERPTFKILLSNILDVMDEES

| Compound | BTK_I_binding pIC50 |
| --- | --- |
| C=CC(=O)N1CCC[C@@H](NC(=O)c2sc3nccc4c3c2NC(=O)N4c2ccc(OC3CCC3)nc2)C1 [Example 687, (R)—N-(1-Acryloylpiperidin-3-yl)-5-(6-cyclobutoxypyridin-3-yl)-4-oxo-4,5-dihydro-3H-1-thia-3,5,8-triazaacenaphthylene-2-carboxamide] | 7.5 |
| C=CC(=O)N1CCC[C@@H](NC(=O)c2sc3nccc4c3c2NC(=O)N4c2cc(-c3ccccc3)ccc2C)C1 [Example 688, (R)—N-(1-Acryloylpiperidin-3-yl)-5-(4-methyl-[1,1′-biphenyl]-3-yl)-4-oxo-4,5-dihydro-3H-1-thia-3,5,8-triazaacenaphthylene-2-carboxamide] | 7.5 |
| C=CC(=O)N1CCC[C@@H](NC(=O)c2sc3nccc4c3c2NC(=O)N4c2ccc(OC3CCCC3)cc2C)C1 [Example 693, (R)—N-(1-Acryloylpiperidin-3-yl)-5-(4-(cyclopentyloxy)-2-methylphenyl)-4-oxo-4,5-dihydro-3H-1-thia-3,5,8-triazaacenaphthylene-2-carboxamide] | 7.9 |
| C=CC(=O)N1CCC[C@@H](NC(=O)c2sc3nccc4c3c2NC(=O)N4c2ccc(OC)cc2C)C1 [Example 694, (R)—N-(1-Acryloylpiperidin-3-yl)-5-(4-methoxy-2-methylphenyl)-4-oxo-4,5-dihydro-3H-1-thia-3,5,8-triazaacenaphthylene-2-carboxamide] | 7.1 |
| C=CC(=O)N1CCC[C@@H](NC(=O)c2sc3nccc4c3c2NC(=O)N4c2ccc(OCCOC(C)C)cc2C)C1 [Example 696, (R)—N-(1-Acryloylpiperidin-3-yl)-5-(4-(2-isopropoxyethoxy)-2-methylphenyl)-4-oxo-4,5-dihydro-3H-1-thia-3,5,8-triazaacenaphthylene-2-carboxamide] | 6.9 |
| C=CC(=O)N1CC[C@@H](NC(=O)c2sc3nccc4c3c2NC(=O)N4c2cnc(Oc3ccccc3)cn2)C1 [Example 699, (R)—N-(1-Acryloylpyrrolidin-3-yl)-4-oxo-5-(5-phenoxypyrazin-2-yl)-4,5-dihydro-3H-1-thia-3,5,8-triazaacenaphthylene-2-carboxamide] | 7.2 |
| CN(C)C/C=C/C(=O)N1CC[C@@H](NC(=O)c2sc3nccc4c3c2NC(=O)N4c2ccc(Oc3ccccc3)c(Cl)c2)C1 [Example 703, (R,E)-5-(3-Chloro-4-phenoxyphenyl)-N-(1-(4-(dimethylamino)but-2-enoyl)pyrrolidin-3-yl)-4-oxo-4,5-dihydro-3H-1-thia-3,5,8-triazaacenaphthylene-2-carboxamide] | 7.8 |
| C=CC(=O)N1CCC[C@@H](NC(=O)c2sc3nccc4c3c2NC(=O)N4c2ccc(OC3CCC3)nc2C)C1 [Example 704, (R)—N-(1-Acryloylpiperidin-3-yl)-5-(6-cyclobutoxy-2-methylpyridin-3-yl)-4-oxo-4,5-dihydro-3H-1-thia-3,5,8-triazaacenaphthylene-2-carboxamide] | 6.6 |

Now from value to molecule:

| BTK_I_binding pIC50 | Compound |
| --- | --- |
| 7.7 | CC(=O)N1CCC[C@@H]1/C=C(\C#N)C(=O)N1CCC[C@@H](NC(=O)c2sc3nccc4c3c2NC(=O)N4c2ccc(Oc3ccccc3)cc2C)C1 [Example 683, N—((R)-1-((E)-3-((R)-1-Acetylpyrrolidin-2-yl)-2-cyanoacryloyl)piperidin-3-.l)-5-(2-methyl-4-phenoxyphenyl)-4-oxo-4,5-dihydro-3H-1-thia-3,5,8-triazaacenaphthylene-2-carboxamide] |
| 8.1 | C=CC(=O)N1CCC[C@@H](NC(=O)c2sc3nccc4c3c2NC(=O)N4c2cc(-c3ccccc3)ncn2)C1 [Example 685, (R)—N-(1-Acryloylpiperidin-3-yl)-4-oxo-5-(6-phenylpyrimidin-4-yl)-4,5-dihydro-3H-1-thia-3,5,8-triazaacenaphthylene-2-carboxamide] |
| 7.6 | C=CC(=O)N1CCC[C@@H](NC(=O)c2sc3nccc4c3c2NC(=O)N4c2ccc(Oc3ccccc3)c(Cl)c2)C1 [Example 686, (R)—N-(1-Acryloylpiperidin-3-yl)-5-(3-chloro-4-phenoxyphenyl)-4-oxo-4,5-dihydro-3H-1-thia-3,5,8-triazaacenaphthylene-2-carboxamide] |
| 7.6 | C=CC(=O)N1CCC[C@@H](NC(=O)c2sc3nccc4c3c2NC(=O)N4c2cccc(CC(C)C)c2)C1 [Example 689, (R)—N-(1-Acryloylpiperidin-3-yl)-5-(3-isobutylphenyl)-4-oxo-4,5-dihydro-3H-1-thia-3,5,8-triazaacenaphthylene-2-carboxamide] |
| 8.0 | C=CC(=O)N1CCC[C@@H](NC(=O)c2sc3nccc4c3c2NC(=O)N4c2ccnc(C3CCCC3)c2)C1 [Example 692, (R)—N-(1-Acryloylpiperidin-3-yl)-5-(2-cyclopentylpyridin-4-yl)-4-oxo-4,5-dihydro-3H-1-thia-3,5,8-triazaacenaphthylene-2-carboxamide] |
| 7.3 | C=CC(=O)N1CCC[C@@H](NC(=O)c2sc3nccc4c3c2NC(=O)N4c2cc(-c3ccccc3)ncc2C)C1 [Example 695, (R)—N-(1-Acryloylpiperidin-3-yl)-5-(5-methyl-2-phenylpyridin-4-yl)-4-oxo-4,5-dihydro-3H-1-thia-3,5,8-triazaacenaphthylene-2-carboxamide] |
| 6.9 | C=CC(=O)N1CCC[C@@H](NC(=O)c2sc3nccc4c3c2NC(=O)N4c2ccnc(C(C)C)c2)C1 [Example 697, (R)—N-(1-Acryloylpiperidin-3-yl)-5-(2-isopropylpyridin-4-yl)-4-oxo-4,5-dihydro-3H-1-thia-3,5,8-triazaacenaphthylene-2-carboxamide] |
| 7.2 | C=CC(=O)N1CCC[C@@H](NC(=O)c2sc3nccc4c3c2NC(=O)N4c2ccnc(-c3cccnc3)c2)C1 [Example 701, (R)-5-([2,3′-Bipyridin]-4-yl)-N-(1-acryloylpiperidin-3-yl)-4-oxo-4,5-dihydro-3H-1-thia-3,5,8-triazaacenaphthylene-2-carboxamide] |
| 6.7 | C=CC(=O)N1CC[C@@H](NC(=O)c2sc3nccc4c3c2NC(=O)N4c2cccc(C(C)C)c2)C1 [Example 705, (R)—N-(1-Acryloylpyrrolidin-3-yl)-5-(3-isopropylphenyl)-4-oxo-4,5-dihydro-3H-1-thia-3,5,8-triazaacenaphthylene-2-carboxamide] |
| 7.7 | O=C(N[C@@H]1CCCNC1)c1sc2nccc3c2c1NC(=O)N3c1cccc(-c2cccc(F)c2F)c1 [Example 706, (R)-5-(2′,3′-Difluoro-[1,1′-biphenyl]-3-yl)-4-oxo-N-(piperidin-3-yl)-4,5-dihydro-3H-1-thia-3,5,8-triazaacenaphthylene-2-carboxamide] |

Same assay, conditions: Lanthascreen tracer competition, 60 minutes incubation; pIC50 = negative log of the IC50 in molar; read-out: BTK_I_binding pIC50 (converted)

| Compound | IC50 [nM] |
| --- | --- |
| C=CC(=O)N1CC[C@@H](NC(=O)c2sc3nccc4c3c2NC(=O)N4c2ccc(Oc3ccccc3)cn2)C1 [Example 698, (R)—N-(1-Acryloylpyrrolidin-3-yl)-4-oxo-5-(5-phenoxypyridin-2-yl)-4,5-dihydro-3H-1-thia-3,5,8-triazaacenaphthylene-2-carboxamide] | 31.6 |
